Measurements taken from patent US6914045B2, “Glycopeptide antibiotics” (Wyeth Holdings Corporation, priority 2001, dated 2005).

Columns and labels:
Test in all cases: in vitro antibacterial evaluation, MIC by broth dilution
Type in all cases: cell-based
[1] = tested on: Escherichia coli; settings: 18 hours at 35° C.
In short: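 Broth dilution MIC per NCCLS M7-A2 in Mueller-Hinton II medium, inoculum 5×10^5 CFU/mL, antibiotic range 64-0.06 μg/mL. MIC taken as lowest concentration inhibiting growth.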

[2] = tested on: Enterococcus sp.; settings: broth dilution, 18 hours at 35° C.
In short: (§1)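 Broth dilution per NCCLS M7-A2 in Mueller-Hinton II medium, inoculum 5×10^5 CFU/mL, antibiotic range 64-0.06 μg/mL. MIC taken as lowest concentration inhibiting growth; Gram-positive panel includes recent clinical isolates resistant to methicillin, penicillin and/or vancomycin.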

[3] = tested on: Streptococcus sp.; settings: broth dilution, 18 hours at 35° C.
In short: as §1

[4] = tested on: Staphylococcus sp.; settings: broth dilution, 18 hours at 35° C.; for MIC Staphylococcus aureus (ATCC 29213): strain ATCC 29213; for MIC Staphylococcus aureus (GC 1131): strain GC 1131; for MIC Staphylococcus aureus (GC 4541): strain GC 4541; for MIC Staphylococcus aureus (GC 4542): strain GC 4542; for MIC Staphylococcus aureus (GC 4544): strain GC 4544; for MIC Staphylococcus aureus (GC 4545): strain GC 4545
In short: as §1

[5] = Enterococcus faecalis (ATCC 29212)
[6] = Enterococcus faecalis (GC 4552)
[7] = Enterococcus faecalis (GC 4553)
[8] = Enterococcus faecalis (GC 4554)

CC(c1ccccc1)C1NC(=O)CNC(=O)C(CO)NC(=O)C(CC2CN(Cc3ccccc3)C(=N)N2C2OC(CO)C(O)C(O)C2O)NC(=O)C(CC2CNC(=N)N2)NC(=O)C(Cc2ccc(OC3OC(CO)C(OC4OC5COC6(OC5C(O)C4O)C4CC5CC(C4)CC6C5)C(O)C3O)cc2)NC1=O (stereo not drawn) [Example 80, Cyclo[3-(2-iminoimidazolidin-4-yl)alanyl-3-(1-benzyl-3-hexopyranosyl-2-iminoimidazolidin-4-yl)alanylserylglycyl-β-methylphenylalanyl-O-[4-O-[4,6-O-(2-adamantylidene)hexopyranosyl]hexopyranosyl]tyrosyl]]
64 µg/mL: MIC Enterococcus faecalis (ATCC 29212) [2, 5] | MIC Enterococcus faecalis (GC 4552) [2, 6] | MIC Enterococcus faecalis (GC 4554) [2, 8] | MIC Enterococcus faecalis (GC 6189) ([2]; Enterococcus faecalis (GC 6189)) | MIC Enterococcus faecium (GC 4556) ([2]; Enterococcus faecium (GC 4556)) | MIC Enterococcus faecalis (ATCC 29212) [2] | MIC Enterococcus faecalis (GC 2691) [2] | MIC Enterococcus faecalis (GC 3059) [2] | MIC Enterococcus faecalis (GC 4552) [2] | MIC Enterococcus faecalis (GC 4554) [2] | MIC Enterococcus faecalis (GC 6189) [2] | MIC Enterococcus faecium (GC 4556) [2] | MIC Enterococcus faecalis (GC 2691) ([2]; strain GC 2691) | MIC Enterococcus faecalis (GC 3059) ([2]; strain GC 3059) | MIC Staphylococcus aureus (GC 3053) ([4]; strain GC 3053)
32 µg/mL: MIC Enterococcus avium (GC 4558) ([2]; Enterococcus avium (GC 4558)) | MIC Enterococcus faecalis (GC 4553) [2, 7] | MIC Enterococcus faecium (GC 2243) ([2]; Enterococcus faecium (GC 2243)) | MIC Enterococcus avium (GC 4558) [2] | MIC Enterococcus faecalis (GC 2242) [2] | MIC Enterococcus faecalis (GC 4553) [2] | MIC Enterococcus faecium (GC 2243) [2] | MIC Enterococcus faecalis (GC 2242) ([2]; strain GC 2242) | MIC Staphylococcus aureus (ATCC 29213) [4] | MIC Staphylococcus aureus (GC 1131) [4] | MIC Staphylococcus aureus (GC 3051) ([4]; strain GC 3051) | MIC Staphylococcus aureus (GC 4541) [4] | MIC Staphylococcus aureus (GC 4542) [4] | MIC Staphylococcus aureus-SMITH (GC 4543) ([4]; strain GC 4543) | MIC Staphylococcus aureus (GC 4544) [4] | MIC Staphylococcus aureus (GC 4545) [4] | MIC Staphylococcus haemolyticus (GC 4546) ([4]; strain GC 4546) | MIC Coagulase Negative Staphylococcus (GC 4547) ([4]; strain GC 4547) | MIC Coagulase Negative Staphylococcus (GC 4548) ([4]; strain GC 4548) | MIC Coagulase Negative Staphylococcus (GC 4549) ([4]; strain GC 4549) | MIC Coagulase Negative Staphylococcus (GC 4551) ([4]; strain GC 4551)
>64 µg/mL: MIC Escherichia coli (ATCC 25922) [1] | MIC Escherichia coli (GC 4559) [1]
16 µg/mL: MIC Enterococcus faecium (GC 4557) ([2]; Enterococcus faecium (GC 4557)) | MIC Enterococcus faecium (GC 4557) [2] | MIC Streptococcus pneumoniae (GC 4565) [3] | MIC Streptococcus pneumoniae (GC 4565) ([3]; strain GC 4565)
8 µg/mL: MIC Escherichia coli (GC 4560) [1] | MIC Streptococcus agalactiae (GC 4564) [3] | MIC Streptococcus pneumoniae (ATCC 6301) [3] | MIC Streptococcus pyogenes (GC 4563) [3] | MIC Streptococcus pneumoniae (ATCC 6301) ([3]; strain ATCC 6301) | MIC Streptococcus pyogenes (GC 4563) ([3]; strain GC 4563) | MIC Streptococcus agalactiae (GC 4564) ([3]; strain GC 4564) | MIC Coagulase Negative Staphylococcus (GC 6257) ([4]; strain GC 6257)
4 µg/mL: MIC Streptococcus pneumoniae (GC 1894) [3] | MIC Streptococcus pneumoniae (GC 1894) ([3]; strain GC 1894)

CC(c1ccccc1)C1NC(=O)CNC(=O)C(CO)NC(=O)C(C(O)C2CNC(=N)N2C2OC(COC(=O)C(c3ccccc3)c3ccccc3)C(O)C(O)C2O)NC(=O)C(C(O)C2CNC(=N)N2)NC(=O)C(Cc2ccc(OC3OC(CO)C(OC4OC(CO)C(O)C(O)C4O)C(O)C3O)cc2)NC1=O (stereo not drawn) [Example 96, Cyclo[glycyl-β-methylphenylalanyl-O-(4-O-hexopyranosylhexoipyranosyl)tyrosyl-3-(2-iminoimidazolidin-4-yl)seryl-3-[3-[6-O-(diphenylacetyl)hexopyranosyl]-2-iminoimidazolidin-4-yl]-serylseryl]]
>128 µg/mL: MIC Escherichia coli (ATCC 25922) [1] | MIC Enterococcus avium (GC 4558) ([2]; Enterococcus avium (GC 4558)) | MIC Enterococcus faecalis (ATCC 29212) [2, 5] | MIC Enterococcus faecalis (GC 4552) [2, 6] | MIC Enterococcus faecalis (GC 4553) [2, 7] | MIC Enterococcus faecalis (GC 4554) [2, 8] | MIC Enterococcus faecium (GC 2243) ([2]; Enterococcus faecium (GC 2243)) | MIC Enterococcus faecium (GC 4556) ([2]; Enterococcus faecium (GC 4556)) | MIC Enterococcus avium (GC 4558) [2] | MIC Enterococcus faecalis (ATCC 29212) [2] | MIC Enterococcus faecalis (GC 2242) [2] | MIC Enterococcus faecalis (GC 4552) [2] | MIC Enterococcus faecalis (GC 4553) [2] | MIC Enterococcus faecalis (GC 4554) [2] | MIC Enterococcus faecium (GC 2243) [2] | MIC Enterococcus faecium (GC 4556) [2] | MIC Enterococcus faecalis (GC 2242) ([2]; strain GC 2242) | MIC Streptococcus agalactiae (GC 4564) [3] | MIC Streptococcus pneumoniae (GC 4565) [3] | MIC Streptococcus pyogenes (ID-3187) [3] | MIC Streptococcus agalactiae (GC 4564) ([3]; strain GC 4564) | MIC Streptococcus pneumoniae (GC 4565) ([3]; strain GC 4565) | MIC Streptococcus pyogenes (ID-3187) ([3]; strain ID-3187) | MIC Coagulase Negative Staphylococcus (GC 4547) [4] | MIC Coagulase Negative Staphylococcus (GC 4548) [4] | MIC Coagulase Negative Staphylococcus (GC 4549) [4] | MIC Coagulase Negative Staphylococcus (GC 4551) [4] | MIC Staphylococcus aureus-SMITH (GC 4543) [4] | MIC Staphylococcus haemolyticus (GC 4546) [4] | MIC Staphylococcus aureus (ATCC 29213) [4] | MIC Staphylococcus aureus (GC 1131) [4] | MIC Staphylococcus aureus (GC 4541) [4] | MIC Staphylococcus aureus (GC 4542) [4] | MIC Staphylococcus aureus-SMITH (GC 4543) ([4]; strain GC 4543) | MIC Staphylococcus aureus (GC 4544) [4] | MIC Staphylococcus aureus (GC 4545) [4] | MIC Staphylococcus haemolyticus (GC 4546) ([4]; strain GC 4546) | MIC Coagulase Negative Staphylococcus (GC 4547) ([4]; strain GC 4547) | MIC Coagulase Negative Staphylococcus (GC 4548) ([4]; strain GC 4548) | MIC Coagulase Negative Staphylococcus (GC 4549) ([4]; strain GC 4549) | MIC Coagulase Negative Staphylococcus (GC 4551) ([4]; strain GC 4551)
128 µg/mL: MIC Enterococcus faecium (GC 4557) ([2]; Enterococcus faecium (GC 4557)) | MIC Enterococcus faecium (GC 4557) [2] | MIC Coagulase Negative Staphylococcus (ID-3941) [4] | MIC Coagulase Negative Staphylococcus (ID-3941) ([4]; strain ID-3941)
